The values below come from paper PMC9121578, “Celastrol mitigates inflammation in sepsis by inhibiting the PKM2-dependent Warburg effect” (Military Medical Research, 2022).

What all share (format): binding
Assay [1] deals with T1, HMGB1 (high mobility group box 1) (Homo sapiens, UniProt P09429).
T1 construct: recombinant full length, pET-24d, E. coli BL21, Ni-NTA purified; a recombinant human HMGB1 was also bought from Abcam
T1 sequence (P09429 1-215): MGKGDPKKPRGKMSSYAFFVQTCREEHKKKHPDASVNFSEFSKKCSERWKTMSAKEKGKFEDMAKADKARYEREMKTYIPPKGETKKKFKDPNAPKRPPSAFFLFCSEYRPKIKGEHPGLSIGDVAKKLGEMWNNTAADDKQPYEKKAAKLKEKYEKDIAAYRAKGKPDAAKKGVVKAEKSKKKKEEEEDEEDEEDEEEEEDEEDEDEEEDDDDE
Briefly: surface plasmon resonance, CM5 chip, steady-state […].

Assay [2] concerns the target T2, LDHA (lactate dehydrogenase A) (Homo sapiens, UniProt P00338).
T2 construct: recombinant human LDHA obtained from Abcam
The description is as above.

The target in assay [3] is T3, HMGB1 B box (Homo sapiens, UniProt P09429).
T3 construct: B box domain (contains Cys106)
T3 sequence (P09429 95-163 limits assumed): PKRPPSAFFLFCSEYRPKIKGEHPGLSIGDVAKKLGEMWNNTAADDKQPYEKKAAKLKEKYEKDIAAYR
The assay can be described thus: UV-visible absorption; competition with Cel-P labelling. The following applies: 100 μmol/L Cel; covalent.

Assay [4] concerns the target T4, PKM2 (pyruvate kinase M2) (Homo sapiens, UniProt P14618).
T4 construct: gene PKM; recombinant, pET28a, E. coli BL21, Ni-NTA purified; full length implied
Briefly: surface plasmon resonance, CM5 chip, steady-state […]. A general note: In SPR one partner is held on a chip, and binding of the other changes the refractive index at the surface.

Assay [5] addresses T4, PKM2 (pyruvate kinase M2). Briefly: probe labelling, click chemistry, in-gel fluorescence. The settings on record: room temperature; PBS; covalent.
In assay [6] the target is T1, HMGB1 (high mobility group box 1). The assay is described as above. The settings on record: room temperature; PBS; covalent.

Structures are written as SMILES.

T4 sequence (P14618 2-531): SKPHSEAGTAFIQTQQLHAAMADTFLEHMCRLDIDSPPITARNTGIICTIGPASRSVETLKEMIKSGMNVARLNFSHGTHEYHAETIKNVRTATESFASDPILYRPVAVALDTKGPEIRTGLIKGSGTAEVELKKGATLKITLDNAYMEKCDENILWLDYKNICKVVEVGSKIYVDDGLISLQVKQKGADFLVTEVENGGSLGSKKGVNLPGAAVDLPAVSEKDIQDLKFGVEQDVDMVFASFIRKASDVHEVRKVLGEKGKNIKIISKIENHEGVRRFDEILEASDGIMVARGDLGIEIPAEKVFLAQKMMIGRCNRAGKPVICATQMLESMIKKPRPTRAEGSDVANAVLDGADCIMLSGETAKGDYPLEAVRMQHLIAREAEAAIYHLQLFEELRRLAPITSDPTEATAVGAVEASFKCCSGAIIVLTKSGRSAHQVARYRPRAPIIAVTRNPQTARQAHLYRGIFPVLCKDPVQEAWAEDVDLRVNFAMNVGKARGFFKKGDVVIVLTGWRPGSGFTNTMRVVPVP

As to `CC1=C(O)C(=O)C=C2C1=CC=C1[C@@]2(C)CC[C@@]2(C)[C@@H]3C[C@](C)(C(=O)O)CC[C@]3(C)CC[C@]12C` [Cel, Celastrol], the dissociation constant Kd (commonly a measure of binding affinity in units of concentration) is 4.44 µM in assay [1], 562 µM in assay [2] and 635 µM in assay [4]. In addition, the “UV-visible absorption; competition with Cel-P labelling” value in assay [3] is on record as “UV–visible absorption by Cel decreased upon mixing with the B box domain”.

Regarding `C#CCNC(=O)[C@]1(C)CC[C@]2(C)CC[C@]3(C)C4=CC=C5C(=CC(=O)C(O)=C5C)[C@]4(C)CC[C@@]3(C)[C@@H]2C1` [Cel-P, celastrol-probe], the “probe labelling, click chemistry, in-gel fluorescence” value was “These proteins were labeled with Cel-P in a dose-dependent manner” in assay [5] and “Cel-P labeled recombinant human HMGB1 (Fig. 6c)” in assay [6].
